Read-outs that look alike come from different tables or passages of the source.
Experiments:
Assay in all cases: Kinase panel
Assay type in all cases: biochemical
[1] = biological target: SYK (Homo sapiens, UniProt P43405); conditions: read-out: residual enzyme activity
Summary of the method: (§1)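 Compounds were applied once, at 1 µM, to each kinase of a broad biochemical panel, and remaining enzyme activity was calculated. A kinase counted as inhibited if that remaining activity fell to 40% or below.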

[2] = biological target: CDK9/CYCLIN K (Homo sapiens, UniProt P50750); conditions: read-out: residual enzyme activity
Summary of the method: as §1

[3] = biological target: MAST3 (Homo sapiens, UniProt O60307); conditions: MAST3, 1 µM; read-out: residual enzyme activity
Summary of the method: as §1

[4] = biological target: CLK3 (Homo sapiens, UniProt P49761); conditions: CLK3, 1 µM; read-out: residual enzyme activity
Summary of the method: as §1

[5] = biological target: IGFIR (Homo sapiens, UniProt P08069); conditions: read-out: residual enzyme activity
Summary of the method: as §1

[6] = biological target: FES/FPS (Homo sapiens, UniProt P07332); conditions: read-out: residual enzyme activity
Summary of the method: as §1

[7] = biological target: MLK3/MAP3K11 (Homo sapiens, UniProt Q16584); conditions: MLK3/MAP3K11, 1 µM; read-out: residual enzyme activity
Summary of the method: as §1

[8] = biological target: TNIK (Homo sapiens, UniProt Q9UKE5); conditions: read-out: residual enzyme activity
Summary of the method: as §1

[9] = biological target: FGFR3 (Homo sapiens, UniProt P22607); conditions: FGFR3, 1 µM; read-out: residual enzyme activity
Chain of FGFR3 (P22607 23-806, species assumed): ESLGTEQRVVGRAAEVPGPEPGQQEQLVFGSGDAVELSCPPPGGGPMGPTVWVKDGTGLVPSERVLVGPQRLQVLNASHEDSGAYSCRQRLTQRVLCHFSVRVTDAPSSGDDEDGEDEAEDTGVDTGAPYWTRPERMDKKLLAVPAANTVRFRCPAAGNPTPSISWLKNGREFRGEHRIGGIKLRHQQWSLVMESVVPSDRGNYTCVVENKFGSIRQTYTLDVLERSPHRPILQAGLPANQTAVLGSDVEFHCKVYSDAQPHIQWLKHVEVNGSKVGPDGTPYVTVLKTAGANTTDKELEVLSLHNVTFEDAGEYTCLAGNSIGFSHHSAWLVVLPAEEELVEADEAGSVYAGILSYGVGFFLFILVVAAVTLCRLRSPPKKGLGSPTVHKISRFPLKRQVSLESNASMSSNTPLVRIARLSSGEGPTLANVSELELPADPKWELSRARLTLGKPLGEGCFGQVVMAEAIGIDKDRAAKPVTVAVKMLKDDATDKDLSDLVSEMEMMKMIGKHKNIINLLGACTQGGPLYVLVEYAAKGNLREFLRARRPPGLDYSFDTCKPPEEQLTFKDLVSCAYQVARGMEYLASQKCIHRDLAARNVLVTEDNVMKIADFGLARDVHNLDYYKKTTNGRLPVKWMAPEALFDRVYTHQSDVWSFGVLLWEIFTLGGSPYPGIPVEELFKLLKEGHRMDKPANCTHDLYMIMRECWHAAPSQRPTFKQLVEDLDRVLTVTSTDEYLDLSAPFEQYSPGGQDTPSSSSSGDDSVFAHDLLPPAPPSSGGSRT
Summary of the method: as §1

[10] = biological target: SGK2 (Homo sapiens, UniProt Q9HBY8); conditions: SGK2, 1 µM; read-out: residual enzyme activity
Summary of the method: as §1

[11] = biological target: TESK2 (Homo sapiens, UniProt Q96S53); conditions: TESK2, 1 µM; read-out: residual enzyme activity
Chain of TESK2 (Q96S53 whole entry, species assumed): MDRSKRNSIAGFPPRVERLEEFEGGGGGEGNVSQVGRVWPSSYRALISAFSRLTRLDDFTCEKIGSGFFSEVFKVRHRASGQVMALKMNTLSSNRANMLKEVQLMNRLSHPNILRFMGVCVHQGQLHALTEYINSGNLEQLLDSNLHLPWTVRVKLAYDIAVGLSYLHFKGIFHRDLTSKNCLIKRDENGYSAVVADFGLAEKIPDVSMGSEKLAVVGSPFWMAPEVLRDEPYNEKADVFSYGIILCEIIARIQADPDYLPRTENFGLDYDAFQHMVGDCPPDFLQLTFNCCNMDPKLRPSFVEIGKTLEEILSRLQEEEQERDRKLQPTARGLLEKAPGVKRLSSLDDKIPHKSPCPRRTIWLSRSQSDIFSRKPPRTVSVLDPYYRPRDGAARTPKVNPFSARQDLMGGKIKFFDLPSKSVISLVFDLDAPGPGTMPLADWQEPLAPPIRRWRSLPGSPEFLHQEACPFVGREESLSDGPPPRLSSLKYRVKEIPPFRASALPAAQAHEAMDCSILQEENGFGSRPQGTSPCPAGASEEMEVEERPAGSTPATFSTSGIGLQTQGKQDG
Summary of the method: as §1

[12] = biological target: AKT1 (Homo sapiens, UniProt P31749); conditions: AKT1, 1 µM; read-out: residual enzyme activity
Summary of the method: as §1

[13] = biological target: PIM3 (Homo sapiens, UniProt Q86V86); conditions: PIM3, 1 µM; read-out: residual enzyme activity
Summary of the method: as §1

[14] = biological target: SNRK (Homo sapiens, UniProt Q9NRH2); conditions: read-out: residual enzyme activity
Summary of the method: as §1

[15] = biological target: ALK3/BMPR1A (Homo sapiens, UniProt P36894); conditions: read-out: residual enzyme activity
Summary of the method: as §1

[16] = biological target: ALK (Homo sapiens, UniProt Q9UM73); conditions: read-out: residual enzyme activity
Chain of ALK (Q9UM73 19-1620): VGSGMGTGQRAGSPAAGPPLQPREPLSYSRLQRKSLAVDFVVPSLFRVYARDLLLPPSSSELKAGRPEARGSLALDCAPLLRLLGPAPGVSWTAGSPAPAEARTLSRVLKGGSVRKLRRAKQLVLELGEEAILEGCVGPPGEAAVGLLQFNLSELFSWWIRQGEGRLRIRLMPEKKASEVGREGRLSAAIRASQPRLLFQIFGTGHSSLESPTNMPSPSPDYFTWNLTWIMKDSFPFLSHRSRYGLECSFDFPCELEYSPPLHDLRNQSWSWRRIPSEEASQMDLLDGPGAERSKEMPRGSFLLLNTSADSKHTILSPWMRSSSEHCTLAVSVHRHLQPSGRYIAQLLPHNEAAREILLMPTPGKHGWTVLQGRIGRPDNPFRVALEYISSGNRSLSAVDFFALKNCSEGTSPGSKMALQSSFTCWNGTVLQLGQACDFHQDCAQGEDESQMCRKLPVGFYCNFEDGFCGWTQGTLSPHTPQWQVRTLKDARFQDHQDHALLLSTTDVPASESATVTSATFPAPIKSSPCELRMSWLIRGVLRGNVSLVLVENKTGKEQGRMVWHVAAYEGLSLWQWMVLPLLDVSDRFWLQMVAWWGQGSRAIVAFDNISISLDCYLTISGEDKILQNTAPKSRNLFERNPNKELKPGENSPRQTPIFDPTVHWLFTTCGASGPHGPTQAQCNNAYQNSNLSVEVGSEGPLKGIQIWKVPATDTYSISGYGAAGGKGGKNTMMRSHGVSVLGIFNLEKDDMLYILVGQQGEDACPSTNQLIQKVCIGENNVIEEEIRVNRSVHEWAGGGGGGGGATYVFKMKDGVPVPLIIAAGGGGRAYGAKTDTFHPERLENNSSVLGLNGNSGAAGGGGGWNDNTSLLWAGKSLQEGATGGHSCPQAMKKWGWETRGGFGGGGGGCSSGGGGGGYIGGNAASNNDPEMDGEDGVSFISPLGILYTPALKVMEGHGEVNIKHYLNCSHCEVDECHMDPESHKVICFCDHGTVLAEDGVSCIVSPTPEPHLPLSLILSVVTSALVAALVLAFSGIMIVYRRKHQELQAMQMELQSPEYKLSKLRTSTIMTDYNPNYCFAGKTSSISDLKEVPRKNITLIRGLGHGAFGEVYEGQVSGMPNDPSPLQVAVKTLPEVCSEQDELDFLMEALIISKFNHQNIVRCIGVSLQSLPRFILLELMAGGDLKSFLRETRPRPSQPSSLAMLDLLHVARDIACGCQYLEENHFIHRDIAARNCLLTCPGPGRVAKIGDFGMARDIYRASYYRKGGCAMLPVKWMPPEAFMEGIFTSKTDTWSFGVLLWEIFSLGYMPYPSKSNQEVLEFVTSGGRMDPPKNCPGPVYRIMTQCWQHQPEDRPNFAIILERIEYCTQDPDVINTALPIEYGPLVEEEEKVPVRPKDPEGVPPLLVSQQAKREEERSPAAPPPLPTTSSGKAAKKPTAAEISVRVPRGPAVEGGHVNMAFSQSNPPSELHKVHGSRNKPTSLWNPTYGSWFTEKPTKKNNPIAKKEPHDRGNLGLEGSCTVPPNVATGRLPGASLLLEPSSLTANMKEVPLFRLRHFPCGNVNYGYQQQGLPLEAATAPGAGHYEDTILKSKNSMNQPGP
Summary of the method: as §1

[17] = biological target: RSK1 (Homo sapiens, UniProt Q15418); conditions: RSK1, 1 µM; read-out: residual enzyme activity
Summary of the method: as §1

[18] = biological target: JNK1 (Homo sapiens, UniProt P45983); conditions: JNK1, 1 µM; read-out: residual enzyme activity
Summary of the method: as §1

[19] = biological target: JNK2 (Homo sapiens, UniProt P45984); conditions: read-out: residual enzyme activity
Summary of the method: as §1

[20] = biological target: FGFR2 (Homo sapiens, UniProt P21802); conditions: FGFR2, 1 µM; read-out: residual enzyme activity
Summary of the method: as §1

[21] = biological target: CK1D (Homo sapiens, UniProt P48730); conditions: read-out: residual enzyme activity
Summary of the method: as §1

[22] = biological target: GRK6 (Homo sapiens, UniProt P43250); conditions: GRK6, 1 µM; read-out: residual enzyme activity
Summary of the method: as §1

[23] = biological target: HIPK2 (Homo sapiens, UniProt Q9H2X6); conditions: HIPK2, 1 µM; read-out: residual enzyme activity
Summary of the method: as §1

[24] = biological target: ERBB4/HER4 (Homo sapiens, UniProt Q15303); conditions: ERBB4/HER4, 1 µM; read-out: residual enzyme activity
Summary of the method: as §1

[25] = biological target: WNK3 (Homo sapiens, UniProt Q9BYP7); conditions: WNK3, 1 µM; read-out: residual enzyme activity
Summary of the method: as §1

[26] = biological target: PKN1/PRK1 (Homo sapiens, UniProt Q16512); conditions: PKN1/PRK1, 1 µM; read-out: residual enzyme activity
Summary of the method: as §1

[27] = biological target: EGFR (Homo sapiens, UniProt P00533); conditions: read-out: residual enzyme activity
Summary of the method: as §1

[28] = biological target: PAK5 (Homo sapiens, UniProt Q9P286); conditions: PAK5, 1 µM; read-out: residual enzyme activity
Chain of PAK5 (Q9P286 whole entry): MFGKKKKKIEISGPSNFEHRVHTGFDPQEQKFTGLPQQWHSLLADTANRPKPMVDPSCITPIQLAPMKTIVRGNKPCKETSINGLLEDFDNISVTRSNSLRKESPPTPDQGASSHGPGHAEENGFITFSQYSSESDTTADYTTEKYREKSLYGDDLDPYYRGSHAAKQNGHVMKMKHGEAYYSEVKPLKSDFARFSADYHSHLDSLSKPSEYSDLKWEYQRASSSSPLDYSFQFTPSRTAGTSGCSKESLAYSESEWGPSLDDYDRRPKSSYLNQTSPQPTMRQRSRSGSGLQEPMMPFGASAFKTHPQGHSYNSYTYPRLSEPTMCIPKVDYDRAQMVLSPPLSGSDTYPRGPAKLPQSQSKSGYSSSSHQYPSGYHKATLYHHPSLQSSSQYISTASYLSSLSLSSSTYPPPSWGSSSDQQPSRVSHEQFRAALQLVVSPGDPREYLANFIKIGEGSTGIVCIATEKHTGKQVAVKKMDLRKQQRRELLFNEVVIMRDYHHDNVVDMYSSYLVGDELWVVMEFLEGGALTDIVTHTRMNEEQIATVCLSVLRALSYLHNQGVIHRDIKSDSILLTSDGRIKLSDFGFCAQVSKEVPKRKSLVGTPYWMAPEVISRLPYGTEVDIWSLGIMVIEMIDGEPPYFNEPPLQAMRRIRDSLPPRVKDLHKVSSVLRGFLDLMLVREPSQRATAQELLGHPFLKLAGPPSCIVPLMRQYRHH
Summary of the method: as §1

[29] = biological target: RSK3 (Homo sapiens, UniProt Q15349); conditions: RSK3, 1 µM; read-out: residual enzyme activity
Summary of the method: as §1

[30] = biological target: PKG2/PRKG2 (Homo sapiens, UniProt Q13237); conditions: PKG2/PRKG2, 1 µM; read-out: residual enzyme activity
Summary of the method: as §1

[31] = biological target: TTBK2 (Homo sapiens, UniProt Q6IQ55); conditions: TTBK2, 1 µM; read-out: residual enzyme activity
Chain of TTBK2 (Q6IQ55 whole entry, species assumed): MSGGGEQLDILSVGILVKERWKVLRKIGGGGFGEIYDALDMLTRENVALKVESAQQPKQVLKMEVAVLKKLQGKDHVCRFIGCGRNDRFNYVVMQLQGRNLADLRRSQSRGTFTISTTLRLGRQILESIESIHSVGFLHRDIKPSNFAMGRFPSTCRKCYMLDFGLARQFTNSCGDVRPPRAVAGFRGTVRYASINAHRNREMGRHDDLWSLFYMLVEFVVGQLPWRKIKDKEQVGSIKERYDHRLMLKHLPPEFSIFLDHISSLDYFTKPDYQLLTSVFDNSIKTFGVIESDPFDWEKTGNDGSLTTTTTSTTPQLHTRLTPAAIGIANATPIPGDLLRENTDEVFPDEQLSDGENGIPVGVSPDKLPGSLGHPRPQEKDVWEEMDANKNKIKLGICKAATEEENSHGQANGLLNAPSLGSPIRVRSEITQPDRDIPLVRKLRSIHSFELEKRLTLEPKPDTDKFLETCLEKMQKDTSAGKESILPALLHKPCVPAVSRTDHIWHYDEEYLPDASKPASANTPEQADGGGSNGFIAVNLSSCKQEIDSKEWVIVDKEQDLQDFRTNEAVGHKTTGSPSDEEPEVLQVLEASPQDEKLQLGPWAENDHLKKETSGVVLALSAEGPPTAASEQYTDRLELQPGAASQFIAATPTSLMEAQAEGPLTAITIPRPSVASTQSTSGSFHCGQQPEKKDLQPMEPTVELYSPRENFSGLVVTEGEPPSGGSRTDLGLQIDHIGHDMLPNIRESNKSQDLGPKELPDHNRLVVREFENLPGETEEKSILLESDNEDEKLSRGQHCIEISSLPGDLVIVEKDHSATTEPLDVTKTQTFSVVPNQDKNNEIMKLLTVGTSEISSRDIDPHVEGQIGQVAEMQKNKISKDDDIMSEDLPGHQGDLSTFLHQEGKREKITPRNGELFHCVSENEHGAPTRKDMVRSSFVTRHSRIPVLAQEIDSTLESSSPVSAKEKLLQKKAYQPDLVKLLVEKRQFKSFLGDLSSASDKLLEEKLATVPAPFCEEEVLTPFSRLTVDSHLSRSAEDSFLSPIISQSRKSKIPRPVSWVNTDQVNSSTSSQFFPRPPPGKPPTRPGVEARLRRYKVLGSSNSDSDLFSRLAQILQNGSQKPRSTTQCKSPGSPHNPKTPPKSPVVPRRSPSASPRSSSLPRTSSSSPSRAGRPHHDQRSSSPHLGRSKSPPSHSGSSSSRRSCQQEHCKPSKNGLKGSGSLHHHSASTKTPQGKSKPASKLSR
Summary of the method: as §1

[32] = biological target: GCK/MAP4K2 (Homo sapiens, UniProt Q12851); conditions: GCK/MAP4K2, 1 µM; read-out: residual enzyme activity
Summary of the method: as §1

[33] = biological target: FGFR4 (Homo sapiens, UniProt P22455); conditions: FGFR4, 1 µM; read-out: residual enzyme activity
Summary of the method: as §1

[34] = biological target: FLT4/VEGFR3 (Homo sapiens, UniProt P35916); conditions: FLT4/VEGFR3, 1 µM; read-out: residual enzyme activity
Summary of the method: as §1

**Q.** What does the source list for `Cc1ccc(Nc2ncc3c(n2)C2(CC2)C(=O)N(c2cc(NC(=O)c4cccc(C(F)(F)F)c4)ccc2C)C3)cn1` [Compound 51, N-(4-methyl-3-(2'-((6-methylpyridin-3-yl)amino)-7'-oxo-5'H-spiro[cyclopropane-1,8'-pyrido[4,3-d]pyrimidine]-6'(7'H)-yl)phenyl)-3-(trifluoromethyl)benzamide]?
**A.** remaining activity at 1 µM [1]: ≤ 40%; remaining activity at 1 µM [2]: > 40%; remaining activity at 1 µM [3]: > 40%; remaining activity at 1 µM [4]: > 40%; remaining activity at 1 µM [5]: > 40%; remaining activity at 1 µM [6]: ≤ 40%; remaining activity at 1 µM [7]: ≤ 40%; remaining activity at 1 µM [8]: ≤ 40%; remaining activity at 1 µM [9]: ≤ 40%; remaining activity at 1 µM [10]: > 40%; remaining activity at 1 µM [11]: ≤ 40%; remaining activity at 1 µM [12]: > 40%; remaining activity at 1 µM [13]: > 40%; remaining activity at 1 µM [14]: > 40%; remaining activity at 1 µM [15]: > 40%; remaining activity at 1 µM [16]: > 40%; remaining activity at 1 µM [17]: ≤ 40%; remaining activity at 1 µM [18]: ≤ 40%; remaining activity at 1 µM ([19]; INK2, 1 µM): ≤ 40%; remaining activity at 1 µM [20]: ≤ 40%; remaining activity at 1 µM ([21]; CKld): > 40%; remaining activity at 1 µM [22]: > 40%; remaining activity at 1 µM [23]: > 40%; remaining activity at 1 µM [24]: ≤ 40%; remaining activity at 1 µM [25]: > 40%; remaining activity at 1 µM [26]: > 40%; remaining activity at 1 µM [27]: ≤ 40%; remaining activity at 1 µM [28]: > 40%; remaining activity at 1 µM [29]: > 40%; remaining activity at 1 µM [30]: > 40%; remaining activity at 1 µM [31]: > 40%; remaining activity at 1 µM [32]: ≤ 40%; remaining activity at 1 µM [33]: ≤ 40%; remaining activity at 1 µM [34]: ≤ 40%

**Q.** Which remaining activity at 1 µM [1] does the source give for `Cc1cn(-c2cc(C(=O)Nc3ccc(C)c(N4Cc5cnc(NC6CC6)nc5C5(CC5)C4=O)c3)cc(C(F)(F)F)c2)cn1` [Compound 8, N-(3-(2'-(cyclopropylamino)-7'-oxo-5'H-spiro[cyclopropane-1,8'-pyrido[4,3-d]pyrimidine]-6'(7'H)-yl)-4-methylphenyl)-3-(4-methyl-1H-imidazol-1-yl)-5-(trifluoromethyl)benzamide] here?
**A.** Its remaining activity at 1 µM is over 40%.

**Q.** And the remaining activity at 1 µM [2]?
**A.** Its remaining activity at 1 µM is over 40%.

**Q.** And the remaining activity at 1 µM [3]?
**A.** The remaining activity at 1 µM was over 40%.

**Q.** And the remaining activity at 1 µM [4]?
**A.** Its remaining activity at 1 µM is over 40%.

**Q.** What about the remaining activity at 1 µM [5] of the same compound?
**A.** Its remaining activity at 1 µM is over 40%.

**Q.** And the remaining activity at 1 µM [6]?
**A.** Its remaining activity at 1 µM is at most 40%.

**Q.** What about the remaining activity at 1 µM [7] of the same compound?
**A.** The remaining activity at 1 µM was at most 40%.

**Q.** And the remaining activity at 1 µM [8]?
**A.** The remaining activity at 1 µM was at most 40%.

**Q.** What about the remaining activity at 1 µM [9] of the same compound?
**A.** Its remaining activity at 1 µM is at most 40%.

**Q.** What about the remaining activity at 1 µM [10] of the same compound?
**A.** The remaining activity at 1 µM was over 40%.

**Q.** What about the remaining activity at 1 µM [11] of the same compound?
**A.** The remaining activity at 1 µM was at most 40%.

**Q.** What about the remaining activity at 1 µM [12] of the same compound?
**A.** The remaining activity at 1 µM was over 40%.

**Q.** What about the remaining activity at 1 µM [13] of the same compound?
**A.** Its remaining activity at 1 µM is over 40%.

**Q.** And the remaining activity at 1 µM [14]?
**A.** The remaining activity at 1 µM was over 40%.

**Q.** And the remaining activity at 1 µM [15]?
**A.** Its remaining activity at 1 µM is over 40%.

**Q.** And the remaining activity at 1 µM [16]?
**A.** The remaining activity at 1 µM was over 40%.

**Q.** And the remaining activity at 1 µM [17]?
**A.** The remaining activity at 1 µM was at most 40%.

**Q.** And the remaining activity at 1 µM [18]?
**A.** Its remaining activity at 1 µM is over 40%.

**Q.** And the remaining activity at 1 µM ([19]; JNK2, 1 µM)?
**A.** Its remaining activity at 1 µM is over 40%.

**Q.** What about the remaining activity at 1 µM [20] of the same compound?
**A.** The remaining activity at 1 µM was at most 40%.

**Q.** What about the remaining activity at 1 µM ([21]; CK1D) of the same compound?
**A.** Its remaining activity at 1 µM is over 40%.

**Q.** And the remaining activity at 1 µM [22]?
**A.** Its remaining activity at 1 µM is over 40%.

**Q.** And the remaining activity at 1 µM [23]?
**A.** The remaining activity at 1 µM was over 40%.

**Q.** And the remaining activity at 1 µM [24]?
**A.** The remaining activity at 1 µM was at most 40%.

**Q.** And the remaining activity at 1 µM [25]?
**A.** Its remaining activity at 1 µM is over 40%.

**Q.** What about the remaining activity at 1 µM [26] of the same compound?
**A.** The remaining activity at 1 µM was over 40%.

**Q.** What about the remaining activity at 1 µM [27] of the same compound?
**A.** The remaining activity at 1 µM was at most 40%.

**Q.** And the remaining activity at 1 µM [28]?
**A.** The remaining activity at 1 µM was over 40%.

**Q.** And the remaining activity at 1 µM [29]?
**A.** Its remaining activity at 1 µM is over 40%.

**Q.** What about the remaining activity at 1 µM [30] of the same compound?
**A.** Its remaining activity at 1 µM is over 40%.

**Q.** What about the remaining activity at 1 µM [31] of the same compound?
**A.** Its remaining activity at 1 µM is over 40%.

**Q.** And the remaining activity at 1 µM [32]?
**A.** Its remaining activity at 1 µM is at most 40%.

**Q.** And the remaining activity at 1 µM [33]?
**A.** Its remaining activity at 1 µM is at most 40%.

**Q.** And the remaining activity at 1 µM [34]?
**A.** Its remaining activity at 1 µM is at most 40%.
